Experiments:
Maltase-glucoamylase = Maltase-glucoamylase (Homo sapiens, UniProt O43451); assay: Inhibition of alpha-glucosidase (unknown origin)
[1] = target: Alpha-glucosidase (Saccharomyces cerevisiae); assay: Inhibition of Saccharomyces cerevisiae alpha-glucosidase using pNPG as substrate incubated for 30 mins by microplate reader analysis

Chain of Maltase-glucoamylase (O43451 whole entry): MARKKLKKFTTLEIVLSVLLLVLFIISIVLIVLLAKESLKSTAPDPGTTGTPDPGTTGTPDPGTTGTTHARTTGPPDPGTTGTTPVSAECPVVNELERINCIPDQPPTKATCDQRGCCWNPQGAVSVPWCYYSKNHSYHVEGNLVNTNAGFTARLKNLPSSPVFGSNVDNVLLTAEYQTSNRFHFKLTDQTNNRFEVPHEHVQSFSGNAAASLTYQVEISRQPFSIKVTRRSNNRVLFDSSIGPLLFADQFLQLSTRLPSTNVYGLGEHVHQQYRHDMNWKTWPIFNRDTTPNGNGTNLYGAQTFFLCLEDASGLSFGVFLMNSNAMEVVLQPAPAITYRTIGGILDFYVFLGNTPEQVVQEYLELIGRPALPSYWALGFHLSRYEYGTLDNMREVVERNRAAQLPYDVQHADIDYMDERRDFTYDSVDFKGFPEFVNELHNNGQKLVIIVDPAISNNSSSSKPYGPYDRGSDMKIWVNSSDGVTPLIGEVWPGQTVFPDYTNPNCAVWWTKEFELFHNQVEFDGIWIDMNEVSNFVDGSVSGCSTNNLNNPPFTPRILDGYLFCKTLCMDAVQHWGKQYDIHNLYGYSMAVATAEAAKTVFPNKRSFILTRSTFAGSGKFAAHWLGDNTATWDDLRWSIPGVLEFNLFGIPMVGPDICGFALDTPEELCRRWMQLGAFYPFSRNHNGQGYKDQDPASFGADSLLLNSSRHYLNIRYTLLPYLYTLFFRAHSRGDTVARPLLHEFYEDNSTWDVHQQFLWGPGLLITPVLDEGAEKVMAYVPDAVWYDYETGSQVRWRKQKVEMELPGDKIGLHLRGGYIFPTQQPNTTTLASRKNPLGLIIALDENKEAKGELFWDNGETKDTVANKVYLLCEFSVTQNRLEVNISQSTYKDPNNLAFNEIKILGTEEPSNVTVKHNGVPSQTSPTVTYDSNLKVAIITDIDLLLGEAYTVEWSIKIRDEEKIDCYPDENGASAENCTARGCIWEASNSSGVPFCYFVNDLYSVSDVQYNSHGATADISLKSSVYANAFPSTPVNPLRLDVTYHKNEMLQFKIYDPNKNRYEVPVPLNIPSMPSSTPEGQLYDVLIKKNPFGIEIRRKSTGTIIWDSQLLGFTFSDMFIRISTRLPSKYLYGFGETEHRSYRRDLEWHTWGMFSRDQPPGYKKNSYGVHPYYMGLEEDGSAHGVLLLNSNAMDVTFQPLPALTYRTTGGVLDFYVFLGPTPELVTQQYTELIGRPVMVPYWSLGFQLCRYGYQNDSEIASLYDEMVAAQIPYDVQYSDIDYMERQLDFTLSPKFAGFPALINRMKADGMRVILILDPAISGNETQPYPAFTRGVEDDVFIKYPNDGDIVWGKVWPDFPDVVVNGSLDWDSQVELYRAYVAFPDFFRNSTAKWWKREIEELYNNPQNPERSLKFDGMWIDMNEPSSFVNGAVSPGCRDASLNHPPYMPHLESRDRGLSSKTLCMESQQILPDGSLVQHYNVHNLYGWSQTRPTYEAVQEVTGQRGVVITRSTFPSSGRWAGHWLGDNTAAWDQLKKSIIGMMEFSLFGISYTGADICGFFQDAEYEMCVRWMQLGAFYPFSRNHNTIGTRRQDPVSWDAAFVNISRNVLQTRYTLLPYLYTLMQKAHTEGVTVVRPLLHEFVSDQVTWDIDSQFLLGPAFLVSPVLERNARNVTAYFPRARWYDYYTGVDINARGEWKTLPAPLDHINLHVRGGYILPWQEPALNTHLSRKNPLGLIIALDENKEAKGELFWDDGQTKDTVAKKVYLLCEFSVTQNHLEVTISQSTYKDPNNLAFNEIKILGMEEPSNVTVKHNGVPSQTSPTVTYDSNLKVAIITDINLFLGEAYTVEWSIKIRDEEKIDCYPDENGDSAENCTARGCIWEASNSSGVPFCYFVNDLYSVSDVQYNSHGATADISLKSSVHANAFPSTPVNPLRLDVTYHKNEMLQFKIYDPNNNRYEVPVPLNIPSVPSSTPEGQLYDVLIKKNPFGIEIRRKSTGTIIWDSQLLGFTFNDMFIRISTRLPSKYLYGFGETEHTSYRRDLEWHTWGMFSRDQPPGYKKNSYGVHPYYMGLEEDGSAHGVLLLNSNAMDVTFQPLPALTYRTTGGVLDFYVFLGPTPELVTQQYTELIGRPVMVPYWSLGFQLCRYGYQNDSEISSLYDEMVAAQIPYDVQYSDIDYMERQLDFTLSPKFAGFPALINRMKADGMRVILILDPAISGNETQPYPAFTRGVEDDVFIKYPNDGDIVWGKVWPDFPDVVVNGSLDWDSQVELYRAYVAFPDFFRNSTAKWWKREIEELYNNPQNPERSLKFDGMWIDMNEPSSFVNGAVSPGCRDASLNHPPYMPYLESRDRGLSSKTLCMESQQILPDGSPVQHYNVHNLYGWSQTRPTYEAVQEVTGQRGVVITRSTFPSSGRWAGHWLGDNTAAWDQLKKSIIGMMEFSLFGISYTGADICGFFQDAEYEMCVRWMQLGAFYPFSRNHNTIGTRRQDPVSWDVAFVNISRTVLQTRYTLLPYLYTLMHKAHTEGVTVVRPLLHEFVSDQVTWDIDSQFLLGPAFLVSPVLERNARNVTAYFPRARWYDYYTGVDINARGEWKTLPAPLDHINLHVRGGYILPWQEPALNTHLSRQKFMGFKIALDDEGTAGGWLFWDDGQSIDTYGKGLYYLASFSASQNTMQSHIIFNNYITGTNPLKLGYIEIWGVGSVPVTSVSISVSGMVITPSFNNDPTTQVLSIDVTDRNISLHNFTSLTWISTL

Question: How did the IC50 (Maltase-glucoamylase) turn out when `O=c1oc2ccc(Cl)cc2c(O)c1C(c1cccc([N+](=O)[O-])c1)c1c(O)c2cc(Cl)ccc2oc1=O` was run?
Answer: 27.1 µM

Question: With `O=c1oc2ccc(Cl)cc2c(O)c1C(c1ccc(Cl)cc1Cl)c1c(O)c2cc(Cl)ccc2oc1=O` as the molecule, how does the IC50 (Maltase-glucoamylase) read?
Answer: 16.5 µM

Question: Which IC50 (Maltase-glucoamylase) does the source give for `COc1cc(C(c2c(O)c3cc(C)ccc3oc2=O)c2c(O)c3cc(C)ccc3oc2=O)cc(OC)c1OC` here?
Answer: 386 µM

Question: For `CCOc1cc(C(c2c(O)c3cc(C)ccc3oc2=O)c2c(O)c3cc(C)ccc3oc2=O)ccc1O`, which IC50 (Maltase-glucoamylase) is on record?
Answer: 221 µM

Question: With `COc1ccc(C(c2c(O)c3cc(Cl)ccc3oc2=O)c2c(O)c3cc(Cl)ccc3oc2=O)cc1O` as the molecule, how does the IC50 (Maltase-glucoamylase) read?
Answer: 113 µM

Question: How did the IC50 (Maltase-glucoamylase) turn out when `O=c1oc2ccc(Cl)cc2c(O)c1C(c1cccc(O)c1)c1c(O)c2cc(Cl)ccc2oc1=O` was run?
Answer: 84.1 µM

Question: For `COc1cc(C(c2c(O)c3cc(Cl)ccc3oc2=O)c2c(O)c3cc(Cl)ccc3oc2=O)ccc1O`, which IC50 (Maltase-glucoamylase) is on record?
Answer: 83.6 µM

Question: How did the IC50 (Maltase-glucoamylase) turn out when `CCOc1cc(C(c2c(O)c3cc(Cl)ccc3oc2=O)c2c(O)c3cc(Cl)ccc3oc2=O)ccc1O` was run?
Answer: 57.1 µM

Question: For `COc1cc(C(c2c(O)c3cc(Cl)ccc3oc2=O)c2c(O)c3cc(Cl)ccc3oc2=O)cc(OC)c1OC`, which IC50 (Maltase-glucoamylase) is on record?
Answer: 128 µM

Question: `COc1ccc(C(c2c(O)c3cc(Cl)ccc3oc2=O)c2c(O)c3cc(Cl)ccc3oc2=O)cc1OC` was tested. Which IC50 (Maltase-glucoamylase) did it give?
Answer: 91.4 µM

Question: `COc1cc2c(O)c(Oc3cc(O[C@@H]4O[C@H](CO)[C@@H](O)[C@H](O)[C@H]4O[C@@H]4O[C@H](CO)[C@@H](O)[C@H](O)[C@H]4O)c4ccc(=O)oc4c3)c(=O)oc2cc1O` was tested. Which IC50 [1] did it give?
Answer: 231 nM

Question: `O=c1ccc2ccc(Oc3cc4cc(O)c(O)cc4oc3=O)cc2o1` [6,7-dihydroxy-3,7'-dicoumaryl ether] was tested. Which IC50 [1] did it give?
Answer: 50 nM

Question: `COc1cc2cc(Oc3ccc4ccc(=O)oc4c3)c(=O)oc2cc1O` [Daphnoretin] was tested. Which IC50 [1] did it give?
Answer: 86 nM

Question: With `COc1ccc(C(c2c(O)c3cc(C)ccc3oc2=O)c2c(O)c3cc(C)ccc3oc2=O)cc1` [acs.jmedchem.1c00409_ST.500] as the molecule, how does the IC50 (Maltase-glucoamylase) read?
Answer: 107 µM
